Consider 17 compounds from patent US20160002248A1, “GLS1 INHIBITORS FOR TREATING DISEASE” (Board of Regents, The University of Texas System, priority 2014, published 2016).

Test [1] has as its target T1, purified recombinant human GAC (GLS1) (Homo sapiens, UniProt O94925).
T1 sequence (O94925 55-598 isoform O94925-3 limits assumed): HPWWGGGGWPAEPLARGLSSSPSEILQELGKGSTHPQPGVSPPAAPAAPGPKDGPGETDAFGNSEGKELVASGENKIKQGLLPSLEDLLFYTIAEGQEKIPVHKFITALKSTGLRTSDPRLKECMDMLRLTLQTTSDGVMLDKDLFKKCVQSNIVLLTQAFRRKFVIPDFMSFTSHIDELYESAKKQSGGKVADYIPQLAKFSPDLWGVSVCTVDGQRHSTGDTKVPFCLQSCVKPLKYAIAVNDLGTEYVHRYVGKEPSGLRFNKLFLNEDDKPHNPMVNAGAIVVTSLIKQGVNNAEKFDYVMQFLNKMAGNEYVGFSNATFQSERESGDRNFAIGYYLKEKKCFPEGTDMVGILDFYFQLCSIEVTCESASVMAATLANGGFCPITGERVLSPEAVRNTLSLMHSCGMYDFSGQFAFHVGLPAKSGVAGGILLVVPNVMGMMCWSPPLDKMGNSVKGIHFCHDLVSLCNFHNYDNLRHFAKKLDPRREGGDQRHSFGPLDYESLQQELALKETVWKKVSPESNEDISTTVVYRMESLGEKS
As to the kind of experiment: GLS1 Enzymatic Activity Assay (dual-coupled enzymatic assay). The format is biochemical. The essentials:
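Recombinant human GAC (2 nM) preincubated with 50 mM potassium phosphate, then inhibitor (10 min each, RT); 1 mM glutamine, pH 7.4 Hepes buffer, 1% DMSO. Glutamate coupled via glutamate oxidase/HRP to resorufin (Ex 530/Em 590), kinetic or 20-min endpoint; IC50 by four-parameter logistic fit.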

The next test has as its system A549 cells. The test can be described thus: Proliferation Assay (A549 cell viability, Cell Titer Fluor). In kind it is cell-based. The settings on record: Homo sapiens, 72 hours. The essentials: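 A549 cells seeded at 1000 cells/well, left 24 h, then exposed to compound for 72 h at 37 °C, 5% CO2, final DMSO 0.5% (v/v). Viability read by Cell Titer Fluor fluorescence; EC50 from four-parameter logistic fit.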

The structures appear in SMILES notation.

As usually defined, the IC50 is the concentration that inhibits the measured activity by half. Broadly, the EC50 is the concentration needed to bring the measured effect to its halfway point. High values mean a need for much substance, low ones an effect from little substance.

`Cc1ccc(CNC(=O)c2cn(CCCCc3cc4c(-c5ccc6c(c5)OCO6)c(C5CC5)[nH]c4nn3)nn2)cn1` [Example 146, 1-{4-[5-(2H-1,3-benzodioxol-5-yl)-6-cyclopropyl-7H-pyrrolo[2,3-c]pyridazin-3-yl]butyl}-N-[(6-methylpyridin-3-yl)methyl]-1H-1,2,3-triazole-4-carboxamide]: the half-maximal inhibitory concentration (IC50) in test [1] is less than 100 nM. This compound also registered an EC50 with A549 cells of less than 100 nM.
Regarding `Cc1ccc(CNC(=O)c2cn(CCCCc3cc4c(-c5ccc(F)cc5F)c(C5CC5)[nH]c4nn3)nn2)cn1` [Example 147, 1-{4-[6-cyclopropyl-5-(2,4-difluorophenyl)-7H-pyrrolo[2,3-c]pyridazin-3-yl]butyl}-N-[(6-methylpyridin-3-yl)methyl]-1H-1,2,3-triazole-4-carboxamide], the IC50 in test [1] was less than 100 nM. The compound also yielded an EC50 with A549 cells of less than 100 nM.
On to `O=C(NCc1cc(OC(F)(F)F)ccc1F)c1cn(CCCCc2cc3cc(C4CN(C(=O)OCC(F)(F)F)C4)[nH]c3nn2)nn1` [Example 148, 2,2,2-trifluoroethyl 3-(3-{4-[4-({[2-fluoro-5-(trifluoromethoxy)phenyl]methyl}carbamoyl)-1H-1,2,3-triazol-1-yl]butyl}-7H-pyrrolo[2,3-c]pyridazin-6-yl)azetidine-1-carboxylate], for which, in test [1], the IC50 is less than 100 nM. Further, in the test on A549 cells, the EC50 was less than 100 nM.
On to `O=C(NCc1ccccn1)c1cn(CCCCc2cc3cc(-c4cccc(OC(F)(F)F)c4)[nH]c3nn2)nn1` [Example 149, N-(pyridin-2-ylmethyl)-1-(4-{6-[3-(trifluoromethoxy)phenyl]-7H-pyrrolo[2,3-c]pyridazin-3-yl}butyl)-1H-1,2,3-triazole-4-carboxamide], for which, in test [1], the IC50 was less than 100 nM. Also, in the test with A549 cells, the EC50 was in the range of 500 to 5000 nM.
The corresponding values for `CC(C)(C)OC(=O)N1CCC(c2cc3cc(CCCCn4cc(C(=O)NCc5cc(OC(F)(F)F)ccc5F)nn4)nnc3[nH]2)CC1` [Example 150, tert-butyl 4-(3-{4-[4-({[2-fluoro-5-(trifluoromethoxy)phenyl]methyl}carbamoyl)-1H-1,2,3-triazol-1-yl]butyl}-7H-pyrrolo[2,3-c]pyridazin-6-yl)piperidine-1-carboxylate] are less than 100 nM and less than 100 nM.
The matching figures for `O=C(NCc1ccccn1)c1cn(CCCCc2cc3c(-c4ccc(F)cc4F)c(C4CC4)[nH]c3nn2)nn1` [Example 151]: less than 100 nM and 100 to 500 nM.
The matching figures for `CC(=O)Nc1cccc(-c2c(C3CC3)[nH]c3nnc(CCCCn4cc(C(=O)NCc5ccc(C(C)(C)O)nc5)nn4)cc23)c1` [Example 152, 1-{4-[6-cyclopropyl-5-(3-acetamidophenyl)-7H-pyrrolo[2,3-c]pyridazin-3-yl]butyl}-N-{[6-(2-hydroxypropan-2-yl)pyridin-3-yl]methyl}-1H-1,2,3-triazole-4-carboxamide]: less than 100 nM and 500 to 5000 nM.
Turning to `CC(=O)Nc1cccc(-c2c(C3CC3)[nH]c3nnc(CCCCn4cc(C(=O)NCc5ccccn5)nn4)cc23)c1` [Example 153], the IC50 in test [1] is less than 100 nM. In the test with A549 cells, this compound gave a 50% effective concentration (EC50) of 500 to 5000 nM.
The corresponding values for `CC(=O)Nc1cccc(-c2c(C3CC3)[nH]c3nnc(CCCCn4cc(C(=O)NCc5ccc(C)nc5)nn4)cc23)c1` [Example 154, 1-{4-[6-cyclopropyl-5-(3-acetamidophenyl)-7H-pyrrolo[2,3-c]pyridazin-3-yl]butyl}-N-[(6-methylpyridin-3-yl)methyl]-1H-1,2,3-triazole-4-carboxamide] are less than 100 nM and 500 to 5000 nM.
The corresponding values for `O=C(NCc1cc(OC(F)(F)F)ccc1F)c1cn(CCCCc2cc3cc(C4CCNCC4)[nH]c3nn2)nn1` [Example 155, N-{[2-fluoro-5-(trifluoromethoxy)phenyl]methyl)-1-{4-[6-(piperidin-4-yl)-7H-pyrrolo[2,3-c]pyridazin-3-yl]butyl)-1H-1,2,3-triazole-4-carboxamide] are 100 to 500 nM and 500 to 5000 nM.
The matching figures for `CC(=O)N1CCC(c2cc3cc(CCCCn4cc(C(=O)NCc5cc(OC(F)(F)F)ccc5F)nn4)nnc3[nH]2)CC1` [Example 156, 1-{4-[6-(1-acetylpiperidin-4-yl)-7H-pyrrolo[2,3-c]pyridazin-3-yl]butyl}-N-{[2-fluoro-5-(trifluoromethoxy)phenyl]methyl}-1H-1,2,3-triazole-4-carboxamide]: less than 100 nM and 100 to 500 nM.
On to `O=C(NCc1cc(OC(F)(F)F)ccc1F)c1cn(CCCCc2cc3cc(C4CCN(C(=O)CC(F)(F)F)CC4)[nH]c3nn2)nn1` [Example 157, N-{[2-fluoro-5-(trifluoromethoxy)phenyl]methyl)-1-(4-{6-[1-(3,3,3-trifluoropropanoyl)piperidin-4-yl]-7H-pyrrolo[2,3-c]pyridazin-3-yl}butyl)-1H-1,2,3-triazole-4-carboxamide], for which the IC50 in test [1] was less than 100 nM. The EC50 in the test with A549 cells was 100 to 500 nM.
The matching figures for `CNC(=O)c1cccc(-c2c(C3CC3)[nH]c3nnc(CCCCn4cc(C(=O)NCc5ccc(C)nc5)nn4)cc23)c1` [Example 158, 1-(4-{6-cyclopropyl-5-[3-(methylcarbamoyl)phenyl]-7H-pyrrolo[2,3-c]pyridazin-3-yl}butyl)-N-[(6-methylpyridin-3-yl)methyl]-1H-1,2,3-triazole-4-carboxamide]: less than 100 nM and 500 to 5000 nM.
The corresponding values for `Cc1ccc(CNC(=O)c2cn(CCCCc3cc4c(-c5cccc(CNS(C)(=O)=O)c5)c(C5CC5)[nH]c4nn3)nn2)cn1` [Example 159, 1-(4-{6-cyclopropyl-5-[3-(methanesulfonamidomethyl)phenyl]-7H-pyrrolo[2,3-c]pyridazin-3-yl}butyl)-N-[(6-methylpyridin-3-yl)methyl]-1H-1,2,3-triazole-4-carboxamide] are less than 100 nM and 500 to 5000 nM.
Regarding `Cc1ccc(CNC(=O)c2cn(CCCCc3cc4c(-c5cccc(C(C)(C)O)c5)c(C5CC5)[nH]c4nn3)nn2)cn1` [Example 160, 1-(4-{6-cyclopropyl-5-[3-(2-hydroxypropan-2-yl)phenyl]-7H-pyrrolo[2,3-c]pyridazin-3-yl}butyl)-N-[(6-mcthylpyridin-3-yl)methyl]-1H-1,2,3-triazole-4-carboxamide], the IC50 in test [1] was less than 100 nM. For the same compound, the EC50 in the test with A549 cells is 100 to 500 nM.
As to `CC(C)(O)c1ccc(CNC(=O)c2cn(CCCCc3cc4c(-c5ccc(F)cc5F)c(C5CC5)[nH]c4nn3)nn2)cn1` [Example 161, 1-{4-[6-cyclopropyl-5-(2,4-difluorophenyl)-7H-pyrrolo[2,3-c]pyridazin-3-yl]butyl}-N-{[6-(2-hydroxypropan-2-yl)pyridin-3-yl]methyl}-1H-1,2,3-triazole-4-carboxamide], the IC50 in test [1] was less than 100 nM. In addition, the EC50 in the test on A549 cells lay within 100 to 500 nM.
The matching figures for `CC(C)(O)c1ccc(CNC(=O)c2cn(CCCCc3cc4c(-c5ccc(C(F)(F)F)cc5)c(C5CC5)[nH]c4nn3)nn2)cn1` [Example 162, 1-(4-{6-cyclopropyl-5-[4-(trifluoromethyl)phenyl]-7H-pyrrolo[2,3-c]pyridazin-3-yl}butyl)-N-{[6-(2-hydroxypropan-2-yl)pyridin-3-yl]methyl}-1H-1,2,3-triazole-4-carboxamide]: less than 100 nM and 100 to 500 nM.
